Reference: US6569894B1, “Arylalkylbenzofuran derivatives as melatonergic agents” (Bristol-Myers Squibb Company, priority 2001, dated 2003)

Experiments:
ML1b receptor = target: T1, ML1b receptor (Homo sapiens, UniProt P49286); assay: Melatonergic receptor binding activity, 2-[125I]-iodomelatonin, ML1b; settings: 37° C. for 1 hour
T1 construct: expressed in transfected cells
T1 sequence (P49286 1-362): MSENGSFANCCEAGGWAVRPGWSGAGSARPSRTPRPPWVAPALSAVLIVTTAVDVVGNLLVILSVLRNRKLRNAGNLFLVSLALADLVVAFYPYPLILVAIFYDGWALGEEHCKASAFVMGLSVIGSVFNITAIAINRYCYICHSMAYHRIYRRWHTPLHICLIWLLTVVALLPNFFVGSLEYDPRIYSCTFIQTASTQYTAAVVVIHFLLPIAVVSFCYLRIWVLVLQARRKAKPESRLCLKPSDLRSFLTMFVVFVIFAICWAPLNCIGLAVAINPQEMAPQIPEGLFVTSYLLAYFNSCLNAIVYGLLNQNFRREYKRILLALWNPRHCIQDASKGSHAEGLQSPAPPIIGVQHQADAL
Procedure: (§1) Melatonergic Receptor Binding Activity
(§2) (a) TME=50 mM Tris buffer containing 12.5 mM MgCl2, and 2 mM EDTA, pH 7.4 at 37° C., with concentrated HCl.
(§3) (b) Wash buffer: 20 mM Tris base containing 2 mM MgCl2, pH 7.4 at room temperature.
(§4) (c) 10^−4 M melatonin (10^−5 M final concentration).
(§5) (d) 2-[^125I]-iodomelatonin, […] final concentration.
(§6) 3. Incubation: 37° C. for 1 hour. Reaction is terminated by filtration. Filters were washed 3 times.
(§7) The compounds of the present invention have affinity for receptors of the endogenous pineal hormone, melatonin, as determined in a receptor binding assays described above in Tables I to V for the ML1a and ML1b (human) receptors. Melatonin is involved in the regulation of a variety of biological rhythms and exerts its biological effects via interaction with specific receptors. There is evidence that administration of melatonin agonists are of clinical utility in the treatment of various conditions regulated by melatonin activity. Such conditions include depression, jet-lag, work-shift syndrome, sleep disorders, glaucoma, some disorders associated with reproduction, cancer benign prostatic hyperplasia, immune disorders and neuroendocrine disorders.

ML1a receptor = target: T2, ML1a receptor (Homo sapiens, UniProt P48039); assay: Melatonergic receptor binding activity, 2-[125I]-iodomelatonin, ML1a; settings: membrane homogenates of NIH-3T3 cells, 37° C. for 1 hour
T2 construct: expressed in transfected cells; pcDNA3)
T2 sequence (P48039 whole entry): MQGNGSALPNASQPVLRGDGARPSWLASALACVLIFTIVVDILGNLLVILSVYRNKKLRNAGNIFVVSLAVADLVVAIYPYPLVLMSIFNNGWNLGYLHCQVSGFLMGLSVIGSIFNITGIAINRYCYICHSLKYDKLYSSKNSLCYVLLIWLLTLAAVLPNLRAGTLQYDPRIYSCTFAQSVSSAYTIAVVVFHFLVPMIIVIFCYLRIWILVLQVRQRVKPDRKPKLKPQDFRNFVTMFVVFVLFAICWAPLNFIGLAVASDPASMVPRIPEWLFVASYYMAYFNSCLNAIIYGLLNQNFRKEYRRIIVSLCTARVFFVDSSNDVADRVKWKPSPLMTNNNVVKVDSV
Procedure: as §1, §2, §3, §4, §5
2. Membrane Homogenates: The melatonin ML1α receptor cDNA was subcloned into pcDNA3 and introduced into NIH-3T3 cells using Lipofectamine. Transformed NIH-3T3 cells resistant to geneticin (G-418) were isolated, and single colonies expressing high levels of 2-[^125I]-iodomelatonin binding were isolated. Cells are maintained in DMEM supplemented with 10% calf serum and G-418 (0.5 g/liter). Cells are grown to confluency in T-175 flasks, scraped using Hank's balanced salt solution, and frozen at −80° C. For preparing membrane homogenates, pellets are thawed on ice, and re-suspended in TME buffer in the presence of 10 μg/ml aprotinin and leupeptin, and 100 μM phenylmethylsulfonylfluoride. The cells were then homogenized using a dounce homogenizer, and centrifuged. The resulting pellet was re-suspended with dounce homogenizer in TME (supplemented with the above protease inhibitors) and frozen. On the day of assay, a small aliquot was thawed on ice and re-suspended in the ice cold TME (1:50-1:100 v/v) and held on ice until assayed.
as §6, §7

| Compound | melting point [°C] | IC50 (ML1b receptor; Table V) [nM] | IC50 (ML1a receptor; Table V) [nM] | IC50 (ML1b receptor; Table III) [nM] | IC50 (ML1a receptor; Table III) [nM] | also measured |
| --- | --- | --- | --- | --- | --- | --- |
| CC(=O)NCCCc1cccc2c1C[C@H](CCCCc1ccccc1)O2 (stereo in doubt) [Example 1, N-[3-[2-(4-Phenylbutyl)-2,3-dihydrobenzofuran-4-yl]propyl]acetamide] | 40 to 41 | – | – | – | – | IC50 (ML1b receptor; Table I): 10 to 250 nM; IC50 (ML1a receptor; Table I): < 10 nM |
| O=C(NCCCc1cccc2c1C[C@H](CCCCc1ccccc1)O2)C1CC1 (stereo in doubt) [Example 5, N-[3-[2-(4-Phenylbutyl)-2,3-dihydrobenzofuran-4-yl]propyl]cyclopropanecarboxamide] | 63 to 64 | – | – | – | – | IC50 (ML1b receptor; Table I): 10 to 250 nM; IC50 (ML1a receptor; Table I): < 10 nM |
| O=C(NCCCc1cccc2oc(CCCCc3ccccc3)cc12)C1CC1 [Example 7, N-[3-[2-(4-Phenylbutyl)benzofuran-4-yl]propyl]cyclopropanecarboxamide] | 70 to 71 | – | – | – | – | IC50 (ML1b receptor; Table II): 10 to 250 nM; IC50 (ML1a receptor; Table II): 10 to 250 nM |
| CC(=O)NC[C@@H]1C[C@H]1c1cccc2c1C[C@@H](CCCCc1ccccc1)O2 [Example 42, N-({2-[(2R)-2-(4-Phenylbutyl)(2,3-dihydrobenzo[b]furan-4-yl)]-(1R,2R)cyclopropyl}methyl)acetamide] | 65 to 66 | < 10 | < 10 | – | – | – |
| CCC(=O)NC[C@@H]1C[C@H]1c1cccc2c1C[C@@H](CCCCc1ccccc1)O2 [Example 43, N-({2-[(2R)-2-(4-Phenylbutyl)(2,3-dihydrobenzo[b]furan-4-yl)]-(1R,2R)cyclopropyl}methyl)propanamide] | – | < 10 | < 10 | – | – | – |
| CCCC(=O)NC[C@@H]1C[C@H]1c1cccc2c1C[C@@H](CCCCc1ccccc1)O2 [Example 44, N-({2-[(2R)-2-(4-Phenylbutyl)(2,3-dihydrobenzo[b]furan-4-yl)]-(1R,2R)cyclopropyl}methyl)butanamide] | – | < 10 | < 10 | – | – | – |
| CC(C)C(=O)NC[C@@H]1C[C@H]1c1cccc2c1C[C@@H](CCCCc1ccccc1)O2 [Example 45, N-({2-[(2R)-2-(4-Phenylbutyl)(2,3-dihydrobenzo[b]furan-4-yl)]-(1R,2R)cyclopropyl}methyl)-2-methylpropanamide] | – | 10 to 250 | 10 to 250 | – | – | – |
| O=C(NC[C@@H]1C[C@H]1c1cccc2c1C[C@@H](CCCCc1ccccc1)O2)C1CC1 [Example 46, N-({2-[(2R)-2-(4-Phenylbutyl)(2,3-dihydrobenzo[b]furan-4-yl)]-(1R,2R)cyclopropyl}methyl)cyclopropylcarboxamide] | – | 10 to 250 | < 10 | – | – | – |
| CCNC(=O)NC[C@@H]1C[C@H]1c1cccc2c1C[C@@H](CCCCc1ccccc1)O2 [Example 47, N-({2-[(2R)-2-(4-Phenylbutyl)(2,3-dihydrobenzo[b]furan-4-yl)]-(1R,2R)cyclopropyl}methyl)(ethylamino)carboxamide] | 69 to 70 | 10 to 250 | 10 to 250 | – | – | – |
| CCNC(=O)NCC1CC1c1c(Cl)ccc2c1CC(CCCCc1ccccc1)O2 [Example 48, N-({2-[2R)-5-Chloro-2-(4-phenylbutyl)(2,3-dihydrobenzo[b]furan-4-yl)]-(1R,2R)cyclopropyl}methyl)(ethylamino)carboxamide] | 126 to 128 | 10 to 250 | 10 to 250 | – | – | – |
| N-3-(2-(2-Phenyleth-1-yl)benzofuran-3-yl)prop-1-yl Acetamide [Example 23] | – | – | – | 10 to 250 | 10 to 250 | – |
| N-3-(2-(2-Phenyleth-1-yl)benzofuran-3-yl)prop-1-yl Butyramide [Example 25] | – | – | – | 10 to 250 | 10 to 250 | – |
| N-3-(2-(2-Phenyleth-1-yl)benzofuran-3-yl)prop-1-yl Propanamide [Example 24] | – | – | – | 10 to 250 | 10 to 250 | – |
| N-3-(2-(2-Phenyleth-1-yl)benzofuran-3-yl)prop-1-yl-cyclopropanecarboxamide [Example 26] | – | – | – | 10 to 250 | 10 to 250 | – |
| N-3-(2-(3-Phenylprop-1-yl)benzofuran-3-yl)prop-1-yl Acetamide [Example 19] | – | – | – | 10 to 250 | < 10 | – |
| N-3-(2-(3-Phenylprop-1-yl)benzofuran-3-yl)prop-1-yl Butyramide [Example 21] | – | – | – | > 250 | 10 to 250 | – |
| N-3-(2-(3-Phenylprop-1-yl)benzofuran-3-yl)prop-1-yl Cyclopropanecarboxamide [Example 22] | – | – | – | > 250 | 10 to 250 | – |
| N-3-(2-(3-Phenylprop-1-yl)benzofuran-3-yl)prop-1-yl Propanamide [Example 20] | – | – | – | > 250 | 10 to 250 | – |
| N-({2-[(2R)-5,7-Dichloro-2-(4-phenylbutyl)(2,3-dihydrobenzo[b]furan-4-yl)](1R,2R)cyclopropyl}methyl)butanamide [Example 49] | – | 10 to 250 | > 250 | – | – | – |
| N-{3-[3-Chloro-2-(4-phenylbutyl)benzo[b]furan-4-yl]-propyl}ethoxycarboxamide [Example 27] | – | – | – | > 250 | > 250 | – |
